Reference: ChEMBL document CHEMBL1147598, “1-(2-Naphthyl)-1H-pyrazole-5-carboxylamides as potent factor Xa inhibitors. Part 3: Design, synthesis and SAR of orally bioavailable benzamidine-P4 inhibitors” (Bioorg Med Chem Lett, 2004)

Tests used:
[1] = target: T1, Coagulation factor X (Homo sapiens, UniProt P00742); assay: In vitro inhibitory activity against human coagulation factor X
[2] = target: T1, Coagulation factor X; assay: Binding affinity for human Coagulation factor X
[3] = In vitro anticoagulant potency measured in human plasma by thrombin generation (TG) assay expressed as 2 x TG; type: functional
[4] = (§1) Volume of distribution in rat; type: ADME, organism-based; conditions: in vivo
[5] = (§2) Clearance rate in rat; type: ADME, organism-based; conditions: in vivo
[6] = Bioavailability in rat; type: ADME, organism-based; conditions: in vivo
[7] = (§3) Half-life determined in rat; type: ADME, organism-based; conditions: in vivo
[8] = target: Vitamin K-dependent protein C (Homo sapiens, UniProt P04070); assay: Inhibitory activity against activated protein C was determined
Vitamin K-dependent protein C, sequence (P04070 43-197 limits assumed): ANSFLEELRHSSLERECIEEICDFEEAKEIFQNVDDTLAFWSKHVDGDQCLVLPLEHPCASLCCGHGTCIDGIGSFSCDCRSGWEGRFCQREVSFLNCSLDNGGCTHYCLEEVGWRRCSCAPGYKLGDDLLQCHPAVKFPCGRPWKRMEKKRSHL
Vitamin K-dependent protein C, sequence (P04070 212-461 limits assumed): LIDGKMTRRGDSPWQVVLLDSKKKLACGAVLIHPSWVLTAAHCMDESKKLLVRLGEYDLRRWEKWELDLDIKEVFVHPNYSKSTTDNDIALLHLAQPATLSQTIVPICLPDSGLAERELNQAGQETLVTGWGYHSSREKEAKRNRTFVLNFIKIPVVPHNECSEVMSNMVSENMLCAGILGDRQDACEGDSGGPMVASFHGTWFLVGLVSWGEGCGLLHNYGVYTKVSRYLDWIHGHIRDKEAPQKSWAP

[9] = target: Kallikrein-1 (Homo sapiens, UniProt P06870); assay: Inhibitory activity of compound against kallikrein
Kallikrein-1, sequence (P06870 whole entry): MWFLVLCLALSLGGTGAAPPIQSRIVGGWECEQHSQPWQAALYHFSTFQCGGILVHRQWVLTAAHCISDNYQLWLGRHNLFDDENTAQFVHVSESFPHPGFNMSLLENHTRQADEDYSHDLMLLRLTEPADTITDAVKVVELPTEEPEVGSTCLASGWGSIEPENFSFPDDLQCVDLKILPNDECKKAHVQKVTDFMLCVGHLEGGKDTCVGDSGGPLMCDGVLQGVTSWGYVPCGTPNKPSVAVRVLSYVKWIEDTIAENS

[10] = system: Oryctolagus cuniculus; assay: In vivo inhibition of thrombus accretion at a plasma level of 4.5 […] in the rabbit deep vein thrombosis (DVT) model; type: functional
[11] = system: Oryctolagus cuniculus; assay: In vivo inhibition of thrombus accretion at a plasma level of 3.7 […] in the rabbit deep vein thrombosis (DVT) model; type: functional
[12] = target: Prothrombin (Homo sapiens, UniProt P00734); assay: Inhibitory activity of compound against thrombin
[13] = target: Tissue-type plasminogen activator (Homo sapiens, UniProt P00750); assay: Inhibitory activity of compound against tissue type plasminogen activator
Tissue-type plasminogen activator, sequence (P00750 whole entry): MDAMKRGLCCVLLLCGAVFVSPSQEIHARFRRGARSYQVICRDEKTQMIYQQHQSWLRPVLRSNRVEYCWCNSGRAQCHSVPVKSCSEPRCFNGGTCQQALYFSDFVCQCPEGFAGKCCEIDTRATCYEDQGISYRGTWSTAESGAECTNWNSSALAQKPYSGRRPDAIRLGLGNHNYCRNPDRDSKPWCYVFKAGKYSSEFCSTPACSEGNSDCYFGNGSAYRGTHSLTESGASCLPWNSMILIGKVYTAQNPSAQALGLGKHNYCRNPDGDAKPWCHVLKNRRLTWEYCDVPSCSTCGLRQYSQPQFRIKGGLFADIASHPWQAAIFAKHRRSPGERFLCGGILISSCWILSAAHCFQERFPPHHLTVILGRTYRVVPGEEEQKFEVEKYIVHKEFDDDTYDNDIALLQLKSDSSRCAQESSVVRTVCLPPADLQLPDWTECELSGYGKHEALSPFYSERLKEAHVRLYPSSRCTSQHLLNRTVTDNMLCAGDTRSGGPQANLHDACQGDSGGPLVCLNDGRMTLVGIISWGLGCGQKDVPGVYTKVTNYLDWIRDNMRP

[14] = target: Serine protease 1 (Homo sapiens, UniProt P07477); assay: Inhibitory activity of compound against trypsin
Serine protease 1, sequence (P07477 whole entry): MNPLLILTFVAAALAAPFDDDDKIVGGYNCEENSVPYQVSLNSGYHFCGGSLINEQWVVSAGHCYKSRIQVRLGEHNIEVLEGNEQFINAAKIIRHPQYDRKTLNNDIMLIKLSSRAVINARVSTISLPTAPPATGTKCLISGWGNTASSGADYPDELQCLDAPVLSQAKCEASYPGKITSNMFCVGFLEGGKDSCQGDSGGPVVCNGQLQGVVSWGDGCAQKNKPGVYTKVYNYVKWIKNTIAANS

[15] = target: Plasminogen (Homo sapiens) (UniProt P00747); assay: Inhibitory activity of compound against plasmin
Plasminogen (Homo sapiens), sequence (P00747 whole entry, looked up): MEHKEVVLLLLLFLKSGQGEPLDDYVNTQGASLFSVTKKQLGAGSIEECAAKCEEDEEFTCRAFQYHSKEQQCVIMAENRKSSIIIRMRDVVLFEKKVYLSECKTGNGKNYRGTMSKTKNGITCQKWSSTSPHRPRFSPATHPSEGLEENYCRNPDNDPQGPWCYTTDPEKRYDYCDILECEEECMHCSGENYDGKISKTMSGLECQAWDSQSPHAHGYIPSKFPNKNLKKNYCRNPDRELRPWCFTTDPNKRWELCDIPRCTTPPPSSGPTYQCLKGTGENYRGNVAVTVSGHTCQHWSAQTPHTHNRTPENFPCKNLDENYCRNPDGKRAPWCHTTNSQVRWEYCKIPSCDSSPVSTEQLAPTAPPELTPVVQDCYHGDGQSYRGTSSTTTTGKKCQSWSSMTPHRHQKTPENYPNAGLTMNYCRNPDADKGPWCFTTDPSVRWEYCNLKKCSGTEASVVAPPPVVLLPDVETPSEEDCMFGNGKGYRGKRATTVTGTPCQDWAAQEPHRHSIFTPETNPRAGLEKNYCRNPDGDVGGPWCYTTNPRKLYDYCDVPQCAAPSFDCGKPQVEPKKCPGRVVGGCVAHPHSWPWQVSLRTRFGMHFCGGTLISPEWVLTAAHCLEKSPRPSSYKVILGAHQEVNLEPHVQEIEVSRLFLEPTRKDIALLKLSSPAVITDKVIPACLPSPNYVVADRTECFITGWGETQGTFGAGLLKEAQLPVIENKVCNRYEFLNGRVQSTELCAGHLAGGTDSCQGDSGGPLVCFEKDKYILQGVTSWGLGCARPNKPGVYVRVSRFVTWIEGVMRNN

[16] = species on record: Rattus norvegicus; assay: as §1; type: ADME, organism-based; conditions: in vivo
[17] = species on record: Rattus norvegicus; assay: as §2; type: ADME, organism-based; conditions: in vivo
[18] = species on record: Rattus norvegicus; assay: as §3; type: ADME, organism-based; conditions: in vivo
[19] = system: Oryctolagus cuniculus; assay: In vivo inhibition of thrombus accretion at a plasma level of 3.9 […] in the rabbit deep vein thrombosis (DVT) model; type: functional
[20] = system: Oryctolagus cuniculus; assay: In vivo inhibition of thrombus accretion at a plasma level of 4.6 […] in the rabbit deep vein thrombosis (DVT) model; type: functional

T1 sequence (P00742 41-179 limits assumed): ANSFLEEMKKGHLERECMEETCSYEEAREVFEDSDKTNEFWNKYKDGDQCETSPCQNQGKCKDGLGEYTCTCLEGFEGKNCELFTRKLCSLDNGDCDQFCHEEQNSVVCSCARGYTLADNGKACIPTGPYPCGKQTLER
T1 sequence (P00742 235-488 limits assumed): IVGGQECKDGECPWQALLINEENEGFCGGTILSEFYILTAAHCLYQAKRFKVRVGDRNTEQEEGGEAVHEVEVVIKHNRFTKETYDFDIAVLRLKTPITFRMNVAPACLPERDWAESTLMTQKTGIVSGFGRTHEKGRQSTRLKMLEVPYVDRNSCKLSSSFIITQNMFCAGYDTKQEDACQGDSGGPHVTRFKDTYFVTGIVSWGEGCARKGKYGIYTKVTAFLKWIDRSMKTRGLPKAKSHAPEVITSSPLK

| SMILES | IC50 [1] [µM] | Activity [3] [µM] | further results |
| --- | --- | --- | --- |
| Cc1cc(C(=O)Nc2ccc(C(=N)N3CCCCC3)cc2F)n(-c2ccc3cc(Cl)ccc3c2)n1 | 0.007 | – | – |
| Cc1cc(C(=O)Nc2ccc(C3=NCCN3C)cc2F)n(-c2ccc3cc(Cl)ccc3c2)n1 | 0.008 | 0.91 | Ki [2]: 0.001 µM |
| Cc1cc(C(=O)Nc2ccc(C(=N)N)cc2F)n(-c2cc3ccccc3cc2F)n1 | 0.777 | – | – |
| CNC(=N)c1ccc(NC(=O)c2cc(C)nn2-c2cc3ccccc3cc2F)c(F)c1 | 0.114 | – | – |
| CN(C)C(=N)c1ccc(NC(=O)c2cc(C(F)(F)F)nn2-c2ccc3cc(Cl)ccc3c2)c(F)c1 | 0.001 | 1.8 | Ki [2]: 0.0009 µM |
| Cc1cc(C(=O)Nc2ccc(C(=N)N(C)C)cc2F)n(-c2cc3ccccc3cc2S(C)(=O)=O)n1 | 0.012 | 0.53 | Ki [2]: 0.0028 µM |
| N=C(c1ccc(NC(=O)c2nnnn2-c2ccc3cc(Cl)ccc3c2)c(F)c1)N1CCCC1 | 0.007 | – | – |
| COCCN(C)C(=N)c1ccc(NC(=O)c2cc(C)nn2-c2cc3ccccc3cc2F)c(F)c1 | 0.11 | – | – |
| Cc1cc(C(=O)Nc2ccc(C(=N)N(C)C)s2)n(-c2cc3ccccc3cc2F)n1 | 0.511 | – | – |
| CN1CCN=C1c1ccc(NC(=O)c2nnnn2-c2cc3ccccc3cc2F)c(F)c1 | 0.11 | – | – |
| Cc1cc(C(=O)Nc2ccc(C(=N)N3CCCCC3)cc2F)n(-c2cc3ccccc3cc2F)n1 | 0.008 | 1.5 | Ki [2]: 0.0052 µM |
| Cc1cc(C(=O)Nc2ccc(C(=N)N(C)C)cc2F)n(-c2ccc3cc(Cl)ccc3c2)n1 | 0.005 | 0.83 | Vd [4]: 82.5 L/kg; clearance [5]: 55.9 mL/min/kg; bioavailability [6]: 13.8%; half-life [7]: 18 h; IC50 [8]: > 10 µM; Ki [2]: 0.0007 µM; IC50 [9]: > 10 µM; Inhibition [10]: 56%; Inhibition [11]: 20%; IC50 [12]: > 10 µM; IC50 [13]: > 10 µM; IC50 [14]: > 10 µM; IC50 [15]: > 10 µM |
| N=C(c1ccc(NC(=O)c2cc(C(F)(F)F)nn2-c2cc3ccccc3cc2F)c(F)c1)N1CCCC1 | 0.01 | – | – |
| Cc1cc(C(=O)Nc2ccc(C(=N)N3CCCC3)cc2F)n(-c2ccc3cc(Cl)ccc3c2)n1 | 0.007 | – | – |
| Cc1cc(C(=O)Nc2ccc(C3=NCCN3C)cc2F)n(-c2cc3ccccc3cc2F)n1 | 0.018 | 1.7 | Vd [4]: 7.6 L/kg; clearance [5]: 49.3 mL/min/kg; bioavailability [6]: 43.9%; half-life [7]: 1.8 h; Ki [2]: 0.008 µM |
| Cc1cc(C(=O)Nc2ccc(C(=N)N(C)C)cc2F)n(-c2cc3ccccc3cc2F)n1 | – | 1 | Vd [16]: 49.4 L/kg; CL [17]: 54.3 mL/min/kg; bioavailability [6]: 24.3%; T1/2 [18]: 3.1 h; IC50 [8]: > 10 µM; Ki [2]: 0.0039 µM; IC50 [9]: > 10 µM; IC50 [12]: > 10 µM; IC50 [13]: > 10 µM; IC50 [14]: > 10 µM; IC50 [15]: > 10 µM |
| CCCN(C)C(=N)c1ccc(NC(=O)c2cc(C)nn2-c2cc3ccccc3cc2F)c(F)c1 | 0.034 | – | – |
| Cc1cc(C(=O)Nc2ccc(C(=N)N3CCCC3)cc2F)n(-c2cc3ccccc3cc2F)n1 | 0.006 | 1.4 | Ki [2]: 0.0041 µM |
| CN(C)C(=N)c1ccc(NC(=O)c2nnnn2-c2ccc3cc(Cl)ccc3c2)c(F)c1 | 0.002 | 2.5 | Ki [2]: 0.0007 µM |
| CCN(C)C(=N)c1ccc(NC(=O)c2cc(C)nn2-c2cc3ccccc3cc2F)c(F)c1 | 0.022 | – | – |

| SMILES | IC50 [1] [µM] | Activity [3] [µM] | further results |
| --- | --- | --- | --- |
| N=C(c1ccc(NC(=O)c2nnnn2-c2ccc3cc(Cl)ccc3c2)c(F)c1)N1CCCCC1 | 0.008 | – | – |
| N=C(c1ccc(NC(=O)c2cc(C(F)(F)F)nn2-c2ccc3cc(Cl)ccc3c2)c(F)c1)N1CCCCC1 | 0.004 | – | – |
| Cc1cc(C(=O)Nc2ccc(C(=N)N3CCCCCC3)cc2F)n(-c2cc3ccccc3cc2F)n1 | 0.05 | – | – |
| CN(C)C(=N)c1ccc(NC(=O)c2cc(C(F)(F)F)nn2-c2cc3ccccc3cc2F)c(F)c1 | – | 1.4 | Vd [4]: 11 L/kg; clearance [5]: 14.7 mL/min/kg; bioavailability [6]: 46.9%; half-life [7]: 8.8 h; IC50 [8]: > 10 µM; IC50 [9]: > 10 µM; Inhibition [19]: 20%; Inhibition [20]: 51%; IC50 [12]: > 10 µM; IC50 [13]: > 10 µM; IC50 [14]: > 10 µM; IC50 [15]: > 10 µM |
| Cc1cc(C(=O)Nc2cccc(C(=N)N(C)C)c2)n(-c2cc3ccccc3cc2F)n1 | 0.479 | – | – |
| Cc1cc(C(=O)Nc2cc(C(=N)N(C)C)cs2)n(-c2cc3ccccc3cc2F)n1 | 0.377 | – | – |
| Cc1cc(C(=O)Nc2ccc(C(=N)N(C)Cc3ccccc3)cc2F)n(-c2cc3ccccc3cc2F)n1 | 0.08 | – | – |
| Cc1cc(C(=O)Nc2ccc(C3=NCCN3C)cc2F)n(-c2cc3ccccc3cc2S(C)(=O)=O)n1 | 0.014 | 0.78 | Ki [2]: 0.0039 µM |
| N=C(c1ccc(NC(=O)c2cc(C(F)(F)F)nn2-c2ccc3cc(Cl)ccc3c2)c(F)c1)N1CCCC1 | 0.002 | – | – |
| Cc1cc(C(=O)Nc2ccc(C(=N)N3CCCC3)cc2F)n(-c2cc3ccccc3cc2S(C)(=O)=O)n1 | 0.015 | – | – |
| Cc1cc(C(=O)Nc2ccc(C(=N)N3CCCCC3)cc2F)n(-c2cc3ccccc3cc2S(C)(=O)=O)n1 | 0.028 | – | – |
| CN1CCN=C1c1ccc(NC(=O)c2cc(C(F)(F)F)nn2-c2ccc3cc(Cl)ccc3c2)c(F)c1 | 0.002 | 4.5 | Ki [2]: 0.0012 µM |
| N=C(c1ccc(NC(=O)c2cc(C(F)(F)F)nn2-c2cc3ccccc3cc2F)c(F)c1)N1CCCCC1 | 0.011 | – | – |
| Cc1cc(C(=O)Nc2ccc(C(=N)N3CCOCC3)cc2F)n(-c2cc3ccccc3cc2F)n1 | 0.134 | – | – |
| N=C(c1ccc(NC(=O)c2nnnn2-c2cc3ccccc3cc2F)c(F)c1)N1CCCC1 | 0.024 | – | – |
| N=C(c1ccc(NC(=O)c2nnnn2-c2cc3ccccc3cc2F)c(F)c1)N1CCCCC1 | 0.076 | – | – |
| CN(C)C(=N)c1ccc(NC(=O)c2nnnn2-c2cc3ccccc3cc2F)c(F)c1 | 0.016 | – | – |
| CN1CCN=C1c1ccc(NC(=O)c2nnnn2-c2ccc3cc(Cl)ccc3c2)c(F)c1 | 0.015 | – | – |
| Cc1cc(C(=O)Nc2ccc(C(=N)N(C)CCN(C)C)cc2F)n(-c2cc3ccccc3cc2F)n1 | 0.048 | – | – |
| Cc1cc(C(=O)Nc2ccc(C(=N)N3CCC3)cc2F)n(-c2cc3ccccc3cc2F)n1 | 0.05 | – | – |
